According to ChEMBL document CHEMBL1201862, “PubChem BioAssay data set” (2004):
The source made the active and inactive calls.

Columns and labels:
[1] = Luminescence Cell-Based Dose Response HTS to Identify Activators of Luciferase Translation or Activity in H4 […] Cells. [Related pubchem assays: 1829 (Project Summary), 1814 (Primary HTS)]; format: functional
H4 = test: Luminescence Cell-Based Dose Response HTS to Identify Activators of 5'UTR Stem-Loop Driven Prion Protein mRNA Translation in H4 Neuroglioblastoma Cells. [Related pubchem assays: 1829 (Project Summary), 1814 (Primary HTS)]; format: functional; conditions: Homo sapiens
[2] = Luminescence Cell-Based Dose Confirmation HTS to Identify Activators of 5'UTR Stem-Loop Driven Alpha-Synuclein mRNA Translation in H4 Neuroglioblastoma Cells. [Related pubchem assays: 1829 (Project Summary), 1814 (Primary HTS)]; format: functional
[3] = target: Heat shock protein HSP 90-alpha (Homo sapiens, UniProt P07900); format: functional, organism-based
Cytochrome P450 2C9 [4] = target: T1, Cytochrome P450 2C9 (Homo sapiens, UniProt P11712)
[5] = target: T2, Heat shock factor protein 1 (Mus musculus, UniProt P38532); test: enhancement of HSF1-driven luciferase signal – cell-based, NIH3T3, luminescence, dose retest, confirmation (AID 435004); format: functional;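 also: stress induced by proteasome inhibitor MG132 added 30 min after compound; luciferase reporter driven by HSF1 response element in NIH3T3 cells; actives raise luminescence as potentiators of the MG132 stress response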
T2 sequence (P38532 whole entry): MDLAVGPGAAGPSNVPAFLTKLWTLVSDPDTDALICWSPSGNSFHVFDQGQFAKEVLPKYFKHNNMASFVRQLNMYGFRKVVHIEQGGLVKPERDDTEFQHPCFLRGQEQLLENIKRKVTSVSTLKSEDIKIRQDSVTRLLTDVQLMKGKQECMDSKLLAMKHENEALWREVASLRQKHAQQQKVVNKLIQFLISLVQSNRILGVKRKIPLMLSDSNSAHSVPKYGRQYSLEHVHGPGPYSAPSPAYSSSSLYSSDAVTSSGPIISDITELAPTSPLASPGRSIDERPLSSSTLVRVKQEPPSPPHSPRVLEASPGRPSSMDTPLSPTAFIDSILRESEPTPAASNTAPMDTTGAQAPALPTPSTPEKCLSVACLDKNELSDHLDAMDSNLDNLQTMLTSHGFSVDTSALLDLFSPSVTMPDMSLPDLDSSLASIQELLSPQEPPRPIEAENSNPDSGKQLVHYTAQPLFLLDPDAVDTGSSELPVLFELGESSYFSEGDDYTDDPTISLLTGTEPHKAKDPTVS

[6] = target: T3, Polyadenylate-binding protein 1 (Homo sapiens, UniProt P11940); test: MLLE domain peptide-binding blockers, IC50 – biochemical, fluorescence polarization, FITC-PAM2 peptide, dose response (AID 602259); format: functional; conditions: read-out: IC50_Mean
Nonstructural protein 1 = Nonstructural protein 1 (Influenza A virus, UniProt Q194T2); format: functional, Influenza A virus (A/California/07/2009(H1N1))
[7] = target: T3, Polyadenylate-binding protein 1; test: MLLE binding blockers, Cy5 peptide tracer – biochemical, fluorescence polarization, Cy5-PAM2 peptide, secondary, miRNA deadenylation inhibitor project, dose response (AID 602260); format: functional; conditions: read-out: IC50_Mean
[8] = microbe, parasite or virus in culture; format: functional; conditions: Mycobacterium tuberculosis
[9] = NIH3T3 cell viability loss – ATP luminescence, mouse fibroblasts, counter-screen, dose response (AID 2010); format: functional, cell-based;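 also: cells exposed to compound for about 90 hours before reading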
[10] = Trypanosoma cruzi growth suppression in host cells – NIH3T3 host cells, beta-gal luminescence, confirmation (AID 2044); format: functional, cell-based;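 also: intracellular parasites grown in NIH/3T3 mouse fibroblasts as host cells; luminescent beta-galactosidase reporter signal from transgenic T. cruzi replicating inside host cells; inhibitors lower the luminescence signal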
[11] = viability loss in THP-1 monocytes – THP-1 cells, cytotoxicity control for Vif-APOBEC3G degradation inhibitor project, dose response (AID 1117359); format: functional; conditions: THP-1
[12] = viability of uninfected HEp-2 cells – cell-based, HTS, cytotoxicity control for RSV inhibitor project, dose response (AID 2410); format: functional; conditions: human respiratory syncytial virus
Streptococcus = test: GAS UMAA2166 growth inhibition – luminescence, BacTiterGlo, counter-screen for streptokinase expression inhibitor project, dose response (AID 1915); format: functional, organism-based;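 also: potency for reduction of bacterial viability or growth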
[13] = system: Streptococcus sp. 'group A'; test: Streptococcus pyogenes SK(-)GAS viability under kanamycin – luminescence, BacTiterGlo, confirmation, counter-screen for streptokinase expression inhibitor project, dose response (AID 1900); format: functional, organism-based
Cytochrome P450 1A2 = target: T4, Cytochrome P450 1A2 (Homo sapiens, UniProt P05177);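 also: PubChem cytochrome P450 panel assay, CYP1A2 panel member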
T4 sequence (P05177 whole entry): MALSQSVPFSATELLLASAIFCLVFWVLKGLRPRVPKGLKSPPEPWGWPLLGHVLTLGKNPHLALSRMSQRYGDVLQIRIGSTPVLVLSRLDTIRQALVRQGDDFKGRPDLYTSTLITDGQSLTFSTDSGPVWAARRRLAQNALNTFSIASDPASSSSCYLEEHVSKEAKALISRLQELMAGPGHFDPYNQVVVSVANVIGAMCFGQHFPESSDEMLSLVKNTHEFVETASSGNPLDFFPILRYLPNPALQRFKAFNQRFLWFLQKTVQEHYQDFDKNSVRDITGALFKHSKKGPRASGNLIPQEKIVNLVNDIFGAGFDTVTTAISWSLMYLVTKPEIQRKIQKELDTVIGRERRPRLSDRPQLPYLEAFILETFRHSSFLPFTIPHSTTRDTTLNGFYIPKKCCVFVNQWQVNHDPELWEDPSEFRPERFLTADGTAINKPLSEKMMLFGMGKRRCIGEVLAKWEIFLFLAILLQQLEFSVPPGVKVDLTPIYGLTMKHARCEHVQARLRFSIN

[14] = viability loss in HeLa cells – cytotoxicity control for MgcRacGAP inhibitor project, dose response (AID 624300); format: functional
[15] = target: T5, Rac GTPase-activating protein 1 (Homo sapiens, UniProt Q9H0H5); test: blockers of MgcRacGAP-driven Rac1 GTP hydrolysis – biochemical, ADP Hunter fluorescence, primary and confirmatory, confirmation (AID 624330); format: functional
T5 sequence (Q9H0H5 whole entry): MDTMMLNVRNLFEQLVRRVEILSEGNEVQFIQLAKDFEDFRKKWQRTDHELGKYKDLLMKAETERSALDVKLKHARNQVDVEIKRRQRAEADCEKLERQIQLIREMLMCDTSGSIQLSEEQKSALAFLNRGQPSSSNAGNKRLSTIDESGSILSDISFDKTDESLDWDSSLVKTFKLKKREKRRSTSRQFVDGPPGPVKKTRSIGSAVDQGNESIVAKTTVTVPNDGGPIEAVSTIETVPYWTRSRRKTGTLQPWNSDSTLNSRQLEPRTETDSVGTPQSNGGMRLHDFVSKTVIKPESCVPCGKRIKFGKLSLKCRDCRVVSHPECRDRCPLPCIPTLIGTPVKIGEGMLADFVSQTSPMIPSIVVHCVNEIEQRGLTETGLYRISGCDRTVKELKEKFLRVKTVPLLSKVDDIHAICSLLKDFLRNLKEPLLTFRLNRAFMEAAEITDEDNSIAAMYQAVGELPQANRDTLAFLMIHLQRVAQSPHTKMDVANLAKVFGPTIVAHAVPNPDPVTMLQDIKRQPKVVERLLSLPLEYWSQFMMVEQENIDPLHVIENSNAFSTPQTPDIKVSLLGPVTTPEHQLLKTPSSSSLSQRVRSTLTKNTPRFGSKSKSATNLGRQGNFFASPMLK

Cytochrome P450 2D6 = Cytochrome P450 2D6 (Homo sapiens, UniProt P10635);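 also: CYP2D6 member of a cytochrome P450 panel assay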
Cytochrome P450 2C19 = Cytochrome P450 2C19 (Homo sapiens, UniProt P33261); test: Cytochrome panel assay with activity outcomes. Panel member name: p450-cyp2c19 Compounds with AC50 equal or less than 10 uM are considered active; format: functional; conditions: read-out: AC50
[16] = target: FAD-linked sulfhydryl oxidase ALR (Homo sapiens, UniProt P55789); test: ALR-catalysed DTT oxidation blockers – biochemical, H2O2 detection, luminescence, cherry-pick, dose response (AID 493248)
Cytochrome P450 2C9 [17] = target: T1, Cytochrome P450 2C9; remark: listed apart in the source
Cytochrome P450 3A4 = Cytochrome P450 3A4 (Homo sapiens, UniProt P08684);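 also: CYP3A4 tested as one member of a cytochrome P450 panel screen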
Cytochrome P450 3A4, sequence (P08684 whole entry): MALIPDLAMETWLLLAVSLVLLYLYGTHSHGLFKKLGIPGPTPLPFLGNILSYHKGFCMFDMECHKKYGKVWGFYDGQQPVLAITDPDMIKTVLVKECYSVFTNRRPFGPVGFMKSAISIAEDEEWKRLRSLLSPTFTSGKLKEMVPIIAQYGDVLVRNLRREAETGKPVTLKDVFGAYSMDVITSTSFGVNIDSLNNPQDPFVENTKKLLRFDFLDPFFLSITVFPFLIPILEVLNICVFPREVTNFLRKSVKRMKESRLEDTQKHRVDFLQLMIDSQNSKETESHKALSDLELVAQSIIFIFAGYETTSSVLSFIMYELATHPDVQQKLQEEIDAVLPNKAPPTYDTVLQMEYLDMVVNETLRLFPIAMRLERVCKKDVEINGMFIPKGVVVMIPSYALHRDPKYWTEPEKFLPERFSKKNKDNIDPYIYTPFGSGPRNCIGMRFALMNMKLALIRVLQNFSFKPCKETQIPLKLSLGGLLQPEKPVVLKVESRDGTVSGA

Nonstructural protein 1, sequence (Q194T2 whole entry): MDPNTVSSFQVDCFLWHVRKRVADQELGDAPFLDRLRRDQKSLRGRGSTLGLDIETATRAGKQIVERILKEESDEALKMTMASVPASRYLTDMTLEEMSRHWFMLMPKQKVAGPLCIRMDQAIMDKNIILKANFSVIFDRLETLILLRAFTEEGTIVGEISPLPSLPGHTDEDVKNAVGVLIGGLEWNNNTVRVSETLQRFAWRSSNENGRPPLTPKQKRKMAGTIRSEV
T3 sequence (P11940 whole entry, the tested form may be a part): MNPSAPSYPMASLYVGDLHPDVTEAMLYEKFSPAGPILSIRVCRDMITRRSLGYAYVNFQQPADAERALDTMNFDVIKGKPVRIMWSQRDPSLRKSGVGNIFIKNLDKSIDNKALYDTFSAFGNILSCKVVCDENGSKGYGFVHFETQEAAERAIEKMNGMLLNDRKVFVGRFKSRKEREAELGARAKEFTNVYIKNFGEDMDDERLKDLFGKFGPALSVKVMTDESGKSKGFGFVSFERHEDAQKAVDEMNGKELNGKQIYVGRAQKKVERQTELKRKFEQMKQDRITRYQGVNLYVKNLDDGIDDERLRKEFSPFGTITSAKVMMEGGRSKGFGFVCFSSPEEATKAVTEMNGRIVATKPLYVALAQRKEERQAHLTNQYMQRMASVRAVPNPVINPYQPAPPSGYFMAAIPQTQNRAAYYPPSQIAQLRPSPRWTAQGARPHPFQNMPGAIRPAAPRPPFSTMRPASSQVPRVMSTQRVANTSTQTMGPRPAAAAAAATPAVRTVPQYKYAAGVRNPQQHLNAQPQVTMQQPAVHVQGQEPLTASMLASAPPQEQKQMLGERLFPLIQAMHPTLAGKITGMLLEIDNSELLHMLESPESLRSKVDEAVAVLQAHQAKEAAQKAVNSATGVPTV
T1 sequence (P11712 whole entry): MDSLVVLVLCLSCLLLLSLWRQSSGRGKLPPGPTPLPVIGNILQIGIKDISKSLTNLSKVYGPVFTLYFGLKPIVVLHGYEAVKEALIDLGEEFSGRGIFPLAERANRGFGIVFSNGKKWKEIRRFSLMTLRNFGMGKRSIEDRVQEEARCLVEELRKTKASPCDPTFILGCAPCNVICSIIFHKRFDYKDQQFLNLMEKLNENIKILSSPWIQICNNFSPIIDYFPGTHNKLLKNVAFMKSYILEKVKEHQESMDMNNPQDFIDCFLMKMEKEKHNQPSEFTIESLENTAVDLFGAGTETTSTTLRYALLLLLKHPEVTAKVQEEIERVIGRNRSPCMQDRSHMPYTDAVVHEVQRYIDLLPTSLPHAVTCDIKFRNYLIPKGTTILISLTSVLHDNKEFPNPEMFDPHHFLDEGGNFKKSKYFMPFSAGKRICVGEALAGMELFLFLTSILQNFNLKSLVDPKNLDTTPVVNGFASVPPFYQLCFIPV
Cytochrome P450 2D6, sequence (P10635 whole entry): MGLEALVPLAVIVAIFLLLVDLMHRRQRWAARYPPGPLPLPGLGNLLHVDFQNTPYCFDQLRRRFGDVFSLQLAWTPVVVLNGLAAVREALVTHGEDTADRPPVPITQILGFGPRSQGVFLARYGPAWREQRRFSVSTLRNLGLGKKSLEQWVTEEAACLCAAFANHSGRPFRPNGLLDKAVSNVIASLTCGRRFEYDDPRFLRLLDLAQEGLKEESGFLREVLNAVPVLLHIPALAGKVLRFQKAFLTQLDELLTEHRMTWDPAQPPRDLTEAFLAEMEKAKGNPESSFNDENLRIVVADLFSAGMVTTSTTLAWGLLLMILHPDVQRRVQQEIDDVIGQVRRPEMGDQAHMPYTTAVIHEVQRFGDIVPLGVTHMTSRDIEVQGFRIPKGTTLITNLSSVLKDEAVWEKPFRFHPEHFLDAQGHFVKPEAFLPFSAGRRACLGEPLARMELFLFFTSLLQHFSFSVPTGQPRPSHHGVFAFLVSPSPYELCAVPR
Cytochrome P450 2C19, sequence (P33261 whole entry): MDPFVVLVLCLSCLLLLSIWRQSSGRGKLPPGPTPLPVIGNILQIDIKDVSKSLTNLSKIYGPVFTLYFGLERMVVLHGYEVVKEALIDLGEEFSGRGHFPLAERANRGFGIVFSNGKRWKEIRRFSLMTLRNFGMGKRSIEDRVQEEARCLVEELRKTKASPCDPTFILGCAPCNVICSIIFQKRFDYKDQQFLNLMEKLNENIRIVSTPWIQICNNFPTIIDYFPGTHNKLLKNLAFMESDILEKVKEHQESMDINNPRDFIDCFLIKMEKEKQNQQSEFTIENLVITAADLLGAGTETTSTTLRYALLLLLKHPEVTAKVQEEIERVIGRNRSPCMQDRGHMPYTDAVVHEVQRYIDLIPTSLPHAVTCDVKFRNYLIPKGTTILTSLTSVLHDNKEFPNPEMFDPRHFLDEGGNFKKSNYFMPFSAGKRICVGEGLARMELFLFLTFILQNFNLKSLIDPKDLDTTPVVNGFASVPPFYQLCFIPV
FAD-linked sulfhydryl oxidase ALR, sequence (P55789 whole entry): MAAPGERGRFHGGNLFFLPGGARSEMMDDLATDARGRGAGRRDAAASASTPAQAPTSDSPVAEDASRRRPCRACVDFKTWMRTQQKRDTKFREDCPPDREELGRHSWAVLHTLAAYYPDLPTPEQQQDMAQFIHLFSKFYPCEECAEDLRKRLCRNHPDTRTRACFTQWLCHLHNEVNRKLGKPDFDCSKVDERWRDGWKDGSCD

COc1cccc(-c2nc3n(n2)C(c2ccc4c(c2)OCO4)C(C(N)=O)=C(C)N3)c1 (stereo unspecified)
EC50 [1]: 31.6 µM (active) | EC50 (H4): > 120 µM (not active) | EC50 [2]: 12.4 µM (active)

Cc1ccc(C(=O)ONC(=O)c2ccc(Cl)cc2)cc1[N+](=O)[O-]
AC50 [3]: 4.03 µM (active)

COc1ccc(CNc2ncncc2-c2cccnc2)c(OC)c1
AC50 (Cytochrome P450 2C9 [4]): inconclusive

CCOC(=O)C1CCCN(C(=O)c2sc3nc(C)nc(N(CC)CC)c3c2C)C1 (stereo unspecified)
EC50 [5]: > 260 µM (inactive)

NC(=O)NC(=O)CC1SC(NN=C2CSC(=O)N2)=NC1=O (stereo unspecified)
IC50 [6]: > 66 µM (inactive) | IC50 (Nonstructural protein 1): 7.54 µM (active) | IC50 [7]: > 66 µM (inactive)

CCCCC(=O)NN/C=C1\C(=O)NC(=O)N(Cc2ccco2)C1=O
IC50 (Nonstructural protein 1): 13.7 µM (active)

CCCCCCCCn1cnc2c(N)c(C)c(C)cc21
CC50 [8]: > 40 µM (active)

COC(=O)/C=C1/N=C(Nc2nc(C)cc(C)n2)N(c2ccc(C)c(C)c2)C1=O
EC50 [5]: > 260 µM (inactive)

COc1ccc(NC(=O)C(=O)NCC(c2ccco2)N2CCc3ccccc3C2)cc1 (stereo unspecified)
CC50 [8]: > 40 µM (active)

CC(C)(C)C(=O)NCC12C=CC(O1)C1C(=O)N(c3ccccc3)C(=O)C12 (stereo unspecified)
EC50 [5]: > 260 µM (inactive) | AC50 [3]: 8.25 µM (active)

COc1ccc(NC(=O)c2sccc2SCc2cccc(C(F)(F)F)c2)cc1
EC50 [5]: > 260 µM (inactive) | EC50 [9]: > 60 µM (not active) | EC50 [10]: 2.61 µM (active)

CC(=O)c1c(C)[n+]([O-])c2cc(F)c(F)cc2[n+]1[O-]
CC50 [8]: 35.4 µM (active)

COc1ccc(-c2cc(=Nc3ccccc3)c3cc(C)ccc3o2)cc1.[O-][Cl+3]([O-])([O-])O
EC50 [1]: 10.3 µM (active) | EC50 (H4): 9.82 µM (active) | EC50 [2]: 12.7 µM (active)

Cc1ccc(S(=O)(=O)N(C)c2ccccc2C(=O)N2CCCC2)cc1
CC50 [11]: > 40 µM (active)

Sc1nnc(-c2cc[nH]n2)n1-c1ccccc1Cl
EC50 [1]: 24.1 µM (active) | EC50 (H4): 19.3 µM (active) | EC50 [2]: 12.7 µM (active)

CC(C)c1cc(C(=O)Nc2cc(Br)ccc2O)no1
EC50 [1]: > 120 µM (not active) | EC50 (H4): > 120 µM (not active) | EC50 [2]: 14 µM (active)

COc1ccc(CNC(=O)Cn2cccc2C(=O)c2ccccc2C)cc1
EC50 [1]: 10.2 µM (active) | EC50 (H4): 16.8 µM (active) | EC50 [2]: 10.3 µM (active)

CCCn1c(C2CCCN2c2nc(-c3cccc(Br)c3)cs2)nc2ccccc21 (stereo unspecified)
CC50 [12]: 20.9 µM (active) | EC50 [1]: 32.7 µM (active) | EC50 (H4): > 120 µM (not active) | EC50 [2]: 5.7 µM (active)

CN(C)/C=C/C(=O)/C=C/c1cn(-c2ncc(C(F)(F)F)cc2Cl)c2ccccc12
AC50 [3]: 2.9 µM (active)

CCCCCCC(=O)N(O)C1CC(=O)N(c2ccc(C)cc2)C1=O (stereo unspecified)
IC50 [6]: > 66 µM (inactive) | IC50 [7]: > 66 µM (inactive) | AC50 [3]: 1.43 µM (active)

O=C(NC(=S)NNC(=O)c1ccccc1O)c1ccccc1
IC50 (Nonstructural protein 1): 14.2 µM (active) | EC50 (Streptococcus): 8.1 µM (active) | EC50 [13]: 2.04 µM (active)

C(=C\n1nnc2ccccc21)/c1ccc[nH]1
EC50 [1]: 9.95 µM (active) | EC50 (H4): 32 µM (active) | EC50 [2]: 28.4 µM (active)

COc1ccc(Cl)cc1NC(=O)C12CCC(C)(C(=O)O1)C2(C)C (stereo unspecified)
AC50 (Cytochrome P450 1A2): 28.2 µM (inconclusive) | AC50 (Cytochrome P450 2C9 [4]): inconclusive

O=C(C1CC1)N1CCCC(c2ccc(Cl)cc2)=N1
CC50 [8]: > 40 µM (active)

Cc1ccc(C(=N)NOC(=O)N2c3ccccc3Sc3ccccc32)cc1
CC50 [14]: 96.4 µM (active) | CC50 [8]: > 40 µM (active) | IC50 [15]: 134 µM (active)

Cn1c(-c2cccc([N+](=O)[O-])c2)cnc1NCc1cccc([N+](=O)[O-])c1
CC50 [14]: 100 µM (active)

CCC(=O)N1N=C(c2ccc(NS(C)(=O)=O)cc2)CC1c1ccc(C)cc1 (stereo unspecified)
CC50 [11]: > 40 µM (active)

CCc1ccc(S(=O)(=O)N(C(=O)c2ccncc2)c2ccc(OC(=O)c3ccncc3)cc2)cc1
AC50 [3]: 1.03 µM (active)

CC1=CC2OC3CC4OC(=O)C=CC=CC(=O)OCCC(C)C(O)C(=O)OCC2(CC1)C4(C)C31CO1 (stereo unspecified)
AC50 [3]: < 0.195 µM (active)

C/C(CC(=O)NCCCN1CCOCC1)=N\NC(=O)COc1ccc(Cl)cc1
AC50 (Cytochrome P450 2D6): 14.1 µM (inconclusive) | AC50 (Cytochrome P450 2C9 [4]): inconclusive | AC50 (Cytochrome P450 2C19): 10 µM (inconclusive)

CCOC(=O)c1c(C)c(/C=N/Nc2ccccc2)n(C)c1C
CC50 [11]: > 40 µM (active)

Sc1nnc(-c2ccco2)n1/N=C/c1cccc(Cl)c1Cl
CC50 [14]: 96.5 µM (active) | AC50 [16]: 4.84 µM (active) | IC50 [15]: 95.7 µM (active)

O=[N+]([O-])c1ccc(/C=N/c2ccc(Cl)cc2Cl)s1
AC50 (Cytochrome P450 2C9 [17]): 2.24 µM (inconclusive) | AC50 [3]: 7.83 µM (active)

O=C(N/N=C/c1ccccc1O)C1SCCCS1
IC50 (Nonstructural protein 1): 35.6 µM (active)

COc1ccccc1OCC(=O)N/N=C1/SCC(=O)N1Cc1ccccc1
AC50 (Cytochrome P450 2D6): 22.4 µM (inconclusive) | AC50 (Cytochrome P450 2C9 [4]): inconclusive | AC50 (Cytochrome P450 3A4): 0.891 µM (inconclusive)

O=C(CCCN1CC=C(n2c(=O)[nH]c3ccccc32)CC1)c1ccc(F)cc1 [DROPERIDOL]
AC50 (Cytochrome P450 2C9 [4]): inconclusive

Cc1cc(O)c2c(c1)C(=O)c1cc(O)cc(O)c1C2=O [EMODIN]
CC50 [8]: 20.1 µM (active)
